# Entries after “also recorded” stand apart in the source; their conditions may differ.
# Tests used:
# Format in all cases: in vivo, mouse
# female C57BL/6 mice [1] = assay: Open-field exploration (OFE): locomotor activity and anxiety (thigmotaxis)
# Procedure: Seven-week-old female C57BL/6 mice were purchased from Charles River (Wilmington, Mass., USA) and allowed to habituate to the facility for 7 days, followed by 3 days of handling before the start of the experiment. Mice were randomly assigned into groups, with all groups represented in each cage. […]
# Behavioral experiments were adapted from a published protocol (35). Data were analyzed blinded to the experimental conditions. […]
# For the OFE task, each mouse was allowed to explore the arena for 10 min. The camera footage was then analyzed using ToxTrac, a published program for the total distance moved and time spent in the peripheral versus the central areas (36). For the DOR task, pairs of 50-mL tubes filled with corn cob bedding were taped cap-down to pre-determined positions in the arena. […] The camera footage was then analyzed for bouts of interactions with the tubes. […] Casual touching of the tubes in passing, or leaning onto the tubes to look around were not counted. The preference index for the displaced object was calculated as 100*(time spent with displaced object)/(total time spent with both displaced and familiar objects). The preference index for the familiar object was similarly calculated. […]
# [2] = system: InsP3R1, NCS1, phospholipase C (PLC-β1); assay: Western blot of brain tissue for other InsP3R pathway proteins; settings: 30 DPI, paclitaxel
# Procedure: (§1) Golgi-Cox staining solutions were prepared in advance, according to a published protocol (37). For tissue collection, each mouse was first anesthetized for ˜30 s with […] isoflurane, and then quickly decapitated with scissors. The skull was opened, and the brain was extracted and washed briefly in ice-cold 1× phosphate-buffered saline solution (PBS, AmericanBio). A razor blade was then used to dissect the brain into two hemispheres along the medial longitudinal fissure. One hemisphere was immediately dropped into a 25-mL scintillation vial containing 10 mL of impregnation stock solution. The other hemisphere was rapidly dissected into the cerebellum, hippocampus, frontal cortex, and midbrain, snap-frozen in liquid nitrogen, and then subsequently stored at −80° C. until further use.
# (§2) Frozen tissues were thawed in RIPA buffer containing protease inhibitor, phenylmethylsulfonyl fluoride (PMSF), and sodium orthovanadate (Santa Cruz), homogenized with a polytron, and then spun down twice at 13000 rpm, 4° C. to remove cell debris. Protein concentration was quantified using Pierce BCA protein assay kit (ThermoFisher Scientific) according to the manufacturer's instruction. Western blots were performed using the NuPAGE system (ThermoFisher Scientific) and PVDF membrane with the Biorad wet transfer system (Bio-Rad Laboratories). Approximately 20 μg total protein was loaded into each lane. […]
# female C57BL/6 mice [3] = assay: Displaced object recognition (DOR) task in paclitaxel-induced model of cognitive impairment; settings: for preference for the displaced object (DOR task): saline and paclitaxel 4×20 mg/kg, 20 mg/kg
# Procedure: (§3) Seven-week-old female C57BL/6 mice were purchased from Charles River (Wilmington, Mass., USA) and allowed to habituate to the facility for 7 days, followed by 3 days of handling before the start of the experiment. Mice were randomly assigned into groups, with all groups represented in each cage. Depending on the treatment group, lithium chloride (Sigma-Aldrich, 12.8 mg/kg in 0.9% saline), chelerythrine chloride (Cayman Chemical, 2 mg/kg in 0.4% DMSO in saline), or the appropriate vehicle was administered intraperitoneally 1 h before injection of vehicle (20% 50:50 Cremophor EL: ethanol, 80% saline) or paclitaxel (Cayman Chemical, 20 mg/kg in 20% 50:50 Cremophor EL: ethanol, 80% saline) to induce cognitive impairment. Each mouse received a total of 4 pairs of injections over 8 days. During and after injections, mice were weighed daily and checked for general health and any sign of pain or distress.
# Behavioral experiments were adapted from a published protocol (35). Data were analyzed blinded to the experimental conditions. Open-field exploration (OFE) and displaced object recognition (DOR) tasks were carried out over two consecutive days (FIG. 4.1). The experimental arena was a 35×70×35 cm opaque, white Plexiglas chamber. The arena was covered with ˜1 cm of standard corn cob bedding. […]
# For the OFE task, each mouse was allowed to explore the arena for 10 min. The camera footage was then analyzed using ToxTrac, a published program for the total distance moved and time spent in the peripheral versus the central areas (36). For the DOR task, pairs of 50-mL tubes filled with corn cob bedding were taped cap-down to pre-determined positions in the arena. […] The camera footage was then analyzed for bouts of interactions with the tubes. […] Casual touching of the tubes in passing, or leaning onto the tubes to look around were not counted. The preference index for the displaced object was calculated as 100*(time spent with displaced object)/(total time spent with both displaced and familiar objects). The preference index for the familiar object was similarly calculated.
# [4] = system: layers 2/3 cortical pyramidal neurons; assay: Golgi-Cox staining and Sholl analysis of cortical neurons
# Procedure: as §1
# Golgi-Cox staining was performed according to a published protocol (37). Briefly, the samples were impregnated with a potassium dichromate and mercuric chloride solution at room temperature for 7 days, followed by immersion in a cryoprotection solution for 4 days, and then sectioned into […] frontal slices with a vibratome. The Golgi Atlas of the Postnatal Mouse Brain was used as the reference to identify the section position of the slices (38). Slices corresponding to frontal sections 10 and 11 in the atlas were selected for imaging the hippocampus and the parietal cortex. Slices corresponding to frontal sections 4 and 5 were selected for imaging the prefrontal cortex. The selected slices were mounted on 0.3% gelatin-coated slides, developed and dehydrated through a series of increasing alcohol concentrations, then with xylene, and finally mounted in Eukitt solution (Sigma Aldrich) for imaging. Z-stack images of different regions, including the dentate gyrus and the frontal cortex, were collected using a Zeiss LSM 710 Duo microscope with 20× and 60× objectives. […] Spines were imaged from basal dendritic branches at least […] away, and apical dendritic branches at least […] away from the cell soma. Scholl analysis, total dendritic length, number of branch points, and spine density were performed with ImageJ using the Simple Neurite Tracer plugin (39). Spine density was quantified as the number of protrusions on dendritic branches per μm dendrite length
# PKCα = assay: Western blot of brain tissue for PKCα
# Procedure: as §1
# Frozen tissues were thawed in RIPA buffer containing protease inhibitor, phenylmethylsulfonyl fluoride (PMSF), and sodium orthovanadate (Santa Cruz), homogenized with a polytron, and then spun down twice at 13000 rpm, 4° C. to remove cell debris. Protein concentration was quantified using Pierce BCA protein assay kit (ThermoFisher Scientific) according to the manufacturer's instruction. Western blots were performed using the NuPAGE system (ThermoFisher Scientific) and PVDF membrane with the Biorad wet transfer system (Bio-Rad Laboratories). Approximately 20 μg total protein was loaded into each lane. Information about the antibodies used is included in Supp.
# pMARCKS (S152/156) = assay: Western blot of brain tissue for pMARCKS; settings: cortex, 24 h after paclitaxel injection
# Procedure: as §1, §2
# [5] = Body weight during and after paclitaxel injections
# Procedure: as §3
# [6] = system: granule cells in the dentate gyrus of the hippocampus; assay: Golgi-Cox staining and Sholl analysis of hippocampal neurons; settings: 30 DPI
# Procedure: as §1
# Golgi-Cox staining was performed according to a published protocol (37). Briefly, the samples were impregnated with a potassium dichromate and mercuric chloride solution at room temperature for 7 days, followed by immersion in a cryoprotection solution for 4 days, and then sectioned into […] frontal slices with a vibratome. The Golgi Atlas of the Postnatal Mouse Brain was used as the reference to identify the section position of the slices (38). […] Spine density was quantified as the number of protrusions on dendritic branches per μm dendrite length
# [7] = medial prefrontal cortex, comparison among 4 groups
# [8] = saline/paclitaxel vs the other three groups
smiles,measurement,setting,value
"COc1ccc2c(c[n+](C)c3c4cc5c(cc4ccc23)OCO5)c1OC [chelerythrine, chelerythrine chloride]","locomotor activity and anxiety (total distance moved, thigmotaxis)","female C57BL/6 mice [1]; chelerythrine groups vs other groups, 4 DPI and 22 DPI",no differences
CC(=O)O[C@H]1C(=O)[C@@]2(C)[C@H]([C@H](OC(=O)c3ccccc3)[C@]3(O)C[C@H](OC(=O)[C@H](O)[C@@H](NC(=O)c4ccccc4)c4ccccc4)C(C)=C1C3(C)C)[C@]1(OC(C)=O)CO[C@@H]1C[C@@H]2O [paclitaxel],"levels of other InsP3R pathway proteins (InsP3R1, NCS1, PLC-β1)",[2],No changes
same,DOR task performance,"female C57BL/6 mice [3]; 4×20 mg/kg paclitaxel, after optimization, time not stated",sufficient to impair DOR task performance without additional side effects
same,preference for the displaced object (DOR task),female C57BL/6 mice [3]; 5 DPI,no discrimination between the two objects; also recorded: did not discriminate between the objects; also recorded: impaired short-term spatial memory acquisition; also recorded: no preference for either object
same,preference for the displaced object (DOR task),female C57BL/6 mice [3]; 23 DPI,did not discriminate between the objects; also recorded: impaired short-term spatial memory acquisition; also recorded: persisted up to 23 DPI
same,total dendritic length,"[4]; frontal cortex, saline and paclitaxel vs other groups, 30 DPI",significant reduction
same,dendritic complexity (Sholl analysis),"[4]; frontal cortex, saline and paclitaxel, 30 DPI",significant reduction in dendritic complexity
same,basal dendrites: complexity (Sholl analysis),[4]; [7],no significant differences; also recorded: largely spared; also recorded: not observed in basal dendrites
same,basal dendritic length,[4]; [7],no significant differences
same,basal spine density,[4]; [7],no significant differences
same,apical dendrites: dendritic arborization (Sholl analysis),"[4]; saline/paclitaxel vs saline/vehicle, particularly 110-230 μm",reduced dendritic arborization; also recorded: primarily due to differences in apical dendrites
same,apical dendritic length,[4]; [8],significant reduction
same,apical spine density,[4]; [8],significant reduction
same,"locomotor activity and anxiety (total distance, thigmotaxis)","female C57BL/6 mice [1]; mouse, in vivo, 20 mg/kg",neither impaired locomotor activity nor caused increased anxiety
same,PKCα protein level,"PKCα; cortex, 30 DPI (chronic), 4×20 mg/kg paclitaxel",upregulation
same,PKCα protein level,"PKCα; cortex, 24 h after a single 20 mg/kg paclitaxel injection (acute)",upregulation
same,PKCα protein level,"PKCα; hippocampus, 24 h after a single 20 mg/kg paclitaxel injection (acute)",upregulation
same,pMARCKS (S152/156) level,pMARCKS (S152/156),trend towards increased pMARCKS
same,body weight loss,"[5]; after 2 paclitaxel injections, normalized to first day of injection (FIG. S1)",5-10%
same,body weight loss,"[5]; during injections, normalized to first day of injection (FIG. S3)",approximately 5%
same,"weight loss, comparison among groups",[5]; over the injection duration,No significant differences; also recorded: No significant weight loss
same,total dendritic length,[6]; saline and paclitaxel vs other groups,significant reduction
same,dendritic complexity (Sholl analysis),"[6]; saline and paclitaxel vs saline/vehicle, particularly 20-90 μm from the soma",reduced dendritic arborization; also recorded: substantial reduction in dendritic complexity

# From patent publication US20230031009A1, “TREATMENT FOR CHEMOBRAIN” (YALE UNIVERSITY, priority 2020, published 2023)
